Experimental findings from patent US10767149B2, “Microfluidic device for three dimensional and compartmentalized coculture of neuronal and muscle cells, with functional force readout” (priority 2016, dated 2020) are described below.

Holding throughout (assay type): cell-based, mouse
The test system of experiment [1] is NMJs between ChR2^H134R-HBG3-MN neurospheres and C2C12-derived muscle bundle.
The test system of experiment [2] is NMJs between ChR2^H134R-HBG3-MN and C2C12-derived myotubes.
Experiment [3] deals with motor neurons in neurospheres innervating C2C12-derived muscle bundle. The experiment in a line: Glutamate stimulation of neurospheres in three-dimensional microfluidic neuron-muscle coculture. The protocol: . After reassembling an open-reservoir variant of the microfluidic device onto the muscle strip, the medium contained in all channels was flushed with a collagen-Matrigel mix. Neurospheres ˜300 to 400 μm in diameter were manually selected, resuspended with the same collagen-Matrigel mixture as above, and individually pipetted into the leftmost channel (FIG. 9d and FIG. 8) before the devices were placed in the incubator for matrix gelation, after which medium was supplied to both open reservoirs. The diameter of the neurospheres being greater than the inter-post distance ensured their restriction to the assign channel, resulting in a physical separation of ˜1 mm between the neurons and the muscles.
The first muscle contraction, indicative of the presence of functional NMJs, was recorded 80 s after glutamate administration and the twitching frequency rose during the subsequent 120 s to reach a steady value of ˜1.25 Hz (FIG. 10a). The delay in contraction and increase of the twitching frequency is likely due to the diffusion of the glutamate to the motor neurons embedded in the ECM since this lag is absent in adherent 2D cultures (T. Wada, M. Honda, I. Minami, N. Tooi, Y. Amagai, N. Nakatsuji, K. Aiba, PLoS One 2009, 4, DOI 10.1371/journal.pone.0006722) or three-dimensional constructs in suspension (Y. Morimoto, M. Kato-Negishi, H. Onoe, S. Takeuchi, Biomaterials 2013, 34, 9413).
All three-dimensional cell cultures in the microfluidic devices were carried out in a collagen:Matrigel hydrogel in a 4:1 ratio. Rat tail type I collagen (Corning) was mixed on ice with 10×PBS with phenol red (serving as pH indicator), 0.5 N NaOH and water for cell culture in order to yield a collagen concentration of 2 mg·ml^−1 at a pH of 7.4. Matrigel without growth factors (BD science) was thoroughly mixed to the collagen at 20% of the final gel mixture volume. The gel was then used within a few minutes following its preparation in order to avoid pre-polymerization.
C2C12 were trypsinized, counted and centrifuged for 5 min at 200 rcf. […]

“Also recorded” adds a separate entry of the source.

In the case of α-bungarotoxin, the “effect on light-driven muscle contraction (force F)” value in experiment [1] is reported as “inhibited the contractions; also recorded: inhibited muscle contraction”. Also, in experiment [2], the “contractility of the myocytes after application (spontaneous twitches)” value was “still contractile; also recorded: did not alter the contractility of the myocytes”, the “effect on light-induced muscle contraction” value is “inhibited” and the “myocytes showing inhibition of light-induced muscle contraction” value was 17/17.
In the case of `N[C@@H](CCC(=O)O)C(=O)O` [Glutamate], in experiment [3] (400 μM in medium), the “steady muscle twitching frequency” value is roughly 1.25 Hz. Also, in experiment [3] (400 μM in medium, leftmost channel), the “time to first muscle contraction after administration” value is recorded as 80 s. Further, in experiment [3] (400 μM, after first contraction), the “time over which twitching frequency rose to steady value” came out at 120 s.
